Laboratory results: US20100143937A1 (priority 2007, published 2010)

Molecular target: T1, NAPE-PLD (Homo sapiens, UniProt Q6IQ20)
T1 construct: made in house; host or cells: baculovirus/insect cells, pDEST8.1 vector; purified by metal chelating chromatography
T1 sequence (Q6IQ20 with tags, fused parts or gaps): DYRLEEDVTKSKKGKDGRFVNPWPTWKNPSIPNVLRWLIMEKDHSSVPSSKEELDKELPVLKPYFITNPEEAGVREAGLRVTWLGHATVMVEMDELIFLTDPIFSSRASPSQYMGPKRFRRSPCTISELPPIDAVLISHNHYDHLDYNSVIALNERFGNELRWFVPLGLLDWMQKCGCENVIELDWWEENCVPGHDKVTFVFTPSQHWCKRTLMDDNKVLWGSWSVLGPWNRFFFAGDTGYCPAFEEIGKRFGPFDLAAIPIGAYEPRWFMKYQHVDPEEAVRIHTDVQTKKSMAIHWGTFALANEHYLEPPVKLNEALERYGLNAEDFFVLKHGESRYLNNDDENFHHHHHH
Assay: NAPE-PLD PED6 fluorescence assay, Km determination
Assay type: biochemical
Conditions: substrate PED6 with NAPE-PLD; FIG. 8
Experimental: General assay conditions use the following final concentrations of the following material: NAPE-PLD at 14 nM, PED6 (substrate) at 10 μM, test compounds at 10 μM, DMSO at 1%. PED6 is purchased (see Table 1) as a lyophilized powder and stored at −20° C. A fresh substrate solution should be prepared daily. 1 mg of PED6 is dissolved in 0.88 ml of ethyl acetate and diluted into 43.12 ml assay buffer to make is a 20 μM working solution. PED6 must be kept out of direct light, as it is light sensitive.
Test compounds are diluted in an appropriate buffer. A non-limiting example is 50 mM Tris-HCl, pH 8.0, the buffer may contain DMSO, for instance, 10% DMSO. Assay buffer was 50 mM Tris-HCl, pH 8.0, 0.05% Triton X-100 and stop solution is 0.4 M HCl, 0.05% Triton X-100.
Order of addition of reagents and equipment used: • 1) Dilute enzyme (NAPE-PLD, 22 μM) to 28 nM in assay buffer. • 2) Prepare substrate (20 μM in assay buffer). • 3) Add 10 μl NAPE-PLD to assay plate using FLEXDROP. • 4) Add 2 μl compound (from compound plate) to appropriate wells of assay plate using Cy-Bio. • 5) Incubate plates, covered, at room temperature for 30 minutes (compound preincubation). • 6) Add 10 μl PED6 to assay plate using FLEXDROP. • 7) Incubate plates, covered, at room temperature for 30 minutes (enzyme reaction) • 8) Terminate the reaction by adding 20 μl of stop solution, using FLEXDROP • 9) Read on LJL Acquest. […]

For CCCCCCCCCCCCCCCC(=O)OC[C@H](COP(=O)(O)OCCNC(=O)CCCCCNc1ccc([N+](=O)[O-])cc1[N+](=O)[O-])OC(=O)CCCCC1=[N+]2C(=Cc3c(C)cc(C)n3[B-]2(F)F)C=C1 [PED6], the Km was 3.9 µM.
